Experimental data as given in US7977481B2, “Pyrimidinyl-thiophene kinase modulators” (SGX Pharmaceuticals, Inc., priority 2005, dated 2011).

These molecules were tested against T1, JAK2 JH1JH2 V617F kinase (Homo sapiens, UniProt O60674, V617F) (assay: JAK2 Luminescence-Based ATP Depletion Enzyme Assay (JAK2-V617F)). Settings: 10 μM ATP.
T1 construct: JAK2 JH1JH2 V617F kinase; inferred from Ni-NTA capture and imidazole elution; made in house; host or cells: Sf9 insect cells
Format: biochemical
Protocol: JAK2 Luminescence-Based ATP Depletion Enzyme Assay
Materials: JAK3tide peptide substrate=GGEEEEYFELVKKKK (Biopeptide, San Diego, Calif.), ATP (Sigma Cat#A-3377, FW=551), HEPES buffer, pH 7.6, 10% Brij 35 (Calbiochem Cat#203728), MgCl2, Staurosporine (Streptomyces sp. Sigma Cat#85660-1MG), white Corning (Costar) 384-well flat bottom plate (VWR Cat#29444-088), JAK2 KD (kinase domain) or JAK2 JH1JH2 V617F kinase (see below), Kinase-Glo™ (Promega Cat#V6712).
Stock Solutions: 5 mM JAK3tide peptide (9.86 mg/ml in 100 mM HEPES, pH 7.6), stored at −20° C.; 100 mM HEPES buffer, pH 7.6, 10% Brij 35; 10 mM ATP (5.51 mg/ml in 100 mM HEPES, pH 7.6) stored at −20° C. (diluted 50 μl into total of 10 ml 100 mM HEPES, pH 7.6, daily=50 μM ATP working stock); 100 mM MgCl2; 200 μM Staurosporine, 2× Kinase-Glo™ reagent (made fresh or stored at −20° C.).
Standard Assay Conditions for 384-well format (20 μl kinase reaction, 40 μl detection reaction): 10 mM MgCl2; 0.1 mM JAK3tide peptide (or, 0.5 mM JAK3tide peptide for JAK2 JH1JH2 V617F assay); 1 μl test compound (in 100% DMSO); 0.4 μg/ml JAK2 KD kinase or 12 μg/ml JAK2 JH1JH2 V617F kinase; 10 μM ATP; 100 mM HEPES+0.01% Brij, pH 7.6. Positive controls contained 5% DMSO with no test compound. Negative controls contained 10 μM staurosporine. The kinase reactions were initiated at time t=0 by the addition of ATP. Kinase reactions were incubated at 21-23° C. for 30 min, after which 20 μl of Kinase-Glo™ reagent were added to each well to quench the kinase reaction and initiate the luminescence reaction. After a 20 min incubation at 21-23° C., the luminescence was detected in a plate-reading luminometer (Tecan Ultra Evolution).
The pellet of Sf9 insect cells produced from a 6 L expression of Jak2 was resuspended in a buffer containing 50 mM Tris-HCl pH 8.5, 250 mM NaCl, 5% Glycerol, 0.2% β-octylglucoside, 5 mM β-mercaptoethanol (or with ligand added to the buffer eg. 5 mM ATP and 10 mM MgCl2; 0.05 mM compound of the invention) in a volume of approximately 40 mL per 1 L of original culture. One tablet of Roche Complete, EDTA-free protease inhibitor cocktail (Cat. #1873580) was added per 1 L of original culture. The suspension was then stirred for 1 hour at 4° C. Debris was removed by centrifugation for 30 minutes at 39,800 g at 4° C. The supernatant was decanted into a 500 mL beaker and 10 mL of 50% Qiagen Ni-NTA Agarose (Cat. #30250) pre-equilibrated in 50 mM Tris-HCl pH 8.5, 250 mM NaCl, 5% Glycerol, 0.2% β-octylglucoside, 5 mM β-mercaptoethanol was added and stirred for 30 minutes at 4° C. The sample was poured through a drip column at 4° C. and washed with 10 column volumes (CV) of 50 mM Tris-HCl pH 8.5, 250 mM NaCl, 5% Glycerol, 0.2% β-octylglucoside, 5 mM β-mercaptoethanol. The protein was eluted in 5 mL fractions using 5 CV of the same buffer containing 250-500 mM Imidazole. Fractions were pooled by SDS-PAGE analysis and the protein concentration determined by a Bradford assay. 5 mM TCEP was added to the pool and the protein sample was concentrated to ˜8 mL by centrifugation in an Amicon Ultra-15 10,000 Da MWCO centrifugal filter unit (Cat. #UFC901024). The concentrated protein was applied to a GE Healthcare HiLoad 16/60 Superdex 75 or 200 prep grade column (Cat. #17-1068-01, Cat. #17-1069-01) equilibrated in 20 mM Tris-HCl pH 8.5, 250 mM NaCl, and 1 mM DTT. Fractions were run on a SDS-PAGE gel and the cleanest fractions were pooled. The protein was concentrated to approximately 6.5-10 mg/mL. Samples in the final buffer (20 mM Tris-HCl pH 8.5, 250 mM NaCl, 1 mM DTT; [or with ligand added eg. 2 mM ATP/5 mM MgCl2 or 0.05 mM compound of the invention]) are delivered fresh to crystallization and stored at 4° C. or flash frozen in liquid nitrogen (as 120 μL aliquots) and stored at −80° C.

T1 sequence (O60674 536-1132 V617F limits assumed): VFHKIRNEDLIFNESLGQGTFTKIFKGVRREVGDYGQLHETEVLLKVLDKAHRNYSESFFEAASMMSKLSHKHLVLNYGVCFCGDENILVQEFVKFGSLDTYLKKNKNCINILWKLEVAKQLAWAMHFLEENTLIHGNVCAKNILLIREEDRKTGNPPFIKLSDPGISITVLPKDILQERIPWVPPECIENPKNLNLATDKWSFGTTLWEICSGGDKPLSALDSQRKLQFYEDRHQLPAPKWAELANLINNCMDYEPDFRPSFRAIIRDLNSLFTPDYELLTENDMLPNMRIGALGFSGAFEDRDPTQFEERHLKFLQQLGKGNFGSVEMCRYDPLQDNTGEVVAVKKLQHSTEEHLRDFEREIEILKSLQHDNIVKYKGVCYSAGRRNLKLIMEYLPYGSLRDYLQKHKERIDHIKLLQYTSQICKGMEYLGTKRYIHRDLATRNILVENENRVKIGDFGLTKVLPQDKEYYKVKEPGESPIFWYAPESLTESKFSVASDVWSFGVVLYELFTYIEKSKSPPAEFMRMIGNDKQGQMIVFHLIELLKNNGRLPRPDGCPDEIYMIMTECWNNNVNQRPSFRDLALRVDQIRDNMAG

| SMILES | IC50 |
| --- | --- |
| CN(C)C1CCN(c2cccc(Nc3nccc(-c4ccc(C(=O)NCc5ccco5)s4)n3)c2)C1 (centres unmarked) | < 500 nM |
| CC(O)c1cccc(Nc2nccc(-c3ccc(S(=O)(=O)N(C)C)s3)n2)c1 (centres unmarked) | < 500 nM |
| CCN(CCC#N)C(=O)c1ccc(-c2ccnc(Nc3cccc(C(C)O)c3)n2)s1 (centres unmarked) | < 500 nM |

Other lines, results leading:

| IC50 | SMILES |
| --- | --- |
| < 500 nM | CCN(CCC#N)S(=O)(=O)c1ccc(-c2ccnc(Nc3cccc(C)c3)n2)s1 |
| < 500 nM | C[C@@H](NC(=O)c1ccc(-c2ccnc(Nc3cccc(CN4CCC(O)CC4)c3)n2)s1)c1ccccc1 |
| < 500 nM | CC(O)c1cccc(Nc2nccc(-c3ccc(-c4cccc(CC#N)c4)s3)n2)c1 (centres unmarked) |
| < 500 nM | O=C(NCc1ccccc1)c1ccc(-c2ccnc(Nc3ccc(CCO)cc3)n2)s1 |
| < 500 nM | CCN(CCC#N)S(=O)(=O)c1ccc(-c2ccnc(Nc3cccc(C(C)O)c3)n2)s1 (centres unmarked) |
